The source of these data is US20170349638A1, “COMPANION DIAGNOSTIC TOOL FOR PEPTIDOMIMETIC MACROCYCLES” (AILERON Therapeutics, Inc., priority 2016, published 2017).

Where a SMILES comes first, the peptide text is derived from it. Bridges are numbered along the chain shown (N, C = ends). [ ]: non-standard residue; d: D form. Trp(6-Cl) = N[C@@H](Cc1c[nH]c2cc(Cl)ccc12)C(=O)O; R8 = C=CCCCCCC[C@@](C)(N)C(=O)O; S5 = C=CCCC[C@](C)(N)C(=O)O; Ac3c = NC1(C(=O)O)CC1

Assay [1] concerns Caspase 3 activation in SJSA1 cells. Briefly: Caspase 3 detection assay. Particulars: 48 h, Caspase 3 activation over DMSO-treated cells. The assay is classed as cell-based.
Protocol: Read on Synergy Biotek multiplate reader for luminescence. Data is analyzed as Caspase 3 activation over DMSO-treated cells.
For a further assay, the system named is SJSA-1 cells. Nature of the assay: Cell lysis by peptidomimetic macrocycles (LDH release). The assay is classed as cell-based. Particulars: 1 h incubation.
In the next assay the target is GST-hDM2 (Homo sapiens, UniProt Q00987). Nature of the assay: Competition ELISA IC50 (nM) | GST-hDM2. An excerpt:
Table printed on a drawing sheet, FIGURE 5A
Head of the field: Competition ELISA IC50 (nM) | GST-hDM2
The patent's description of the figure: FIGS. 5A-F describe the results of a cell viability assay, a competition ELISA assay, GRIP assay, Kd data, p21 activation assay, fluorescence polarization competition binding and circular helicity data for exemplary peptidomimetic macrocycles of the invention.
First copying reader's note: First part of a table that continues on FIGS. 5B-F; the print is coarse, several cells hold replicate values separated by; or , and some values sit slightly off their row line.
Where the first naming reader finds the target: head: Competition ELISA IC50 (nM) | GST-hDM2
On the technique in general: An ELISA detects its analyte on a solid surface through an enzyme-linked reagent.

Another assay concerns the target HDM2 (Homo sapiens, UniProt Q00987). Nature of the assay: FP Competition Blinding Assay | HDM2 IC50 (nM).
The target of the next assay is HDMx (Homo sapiens, UniProt O15151). Briefly: FP Competition Blinding Assay | HDMx IC50 (nM).

As a reminder, the IC50 is the concentration at which inhibition is half-maximal. A higher IC50 goes with weaker potency in that assay.

Chain of HDM2 (Q00987 whole entry, looked up): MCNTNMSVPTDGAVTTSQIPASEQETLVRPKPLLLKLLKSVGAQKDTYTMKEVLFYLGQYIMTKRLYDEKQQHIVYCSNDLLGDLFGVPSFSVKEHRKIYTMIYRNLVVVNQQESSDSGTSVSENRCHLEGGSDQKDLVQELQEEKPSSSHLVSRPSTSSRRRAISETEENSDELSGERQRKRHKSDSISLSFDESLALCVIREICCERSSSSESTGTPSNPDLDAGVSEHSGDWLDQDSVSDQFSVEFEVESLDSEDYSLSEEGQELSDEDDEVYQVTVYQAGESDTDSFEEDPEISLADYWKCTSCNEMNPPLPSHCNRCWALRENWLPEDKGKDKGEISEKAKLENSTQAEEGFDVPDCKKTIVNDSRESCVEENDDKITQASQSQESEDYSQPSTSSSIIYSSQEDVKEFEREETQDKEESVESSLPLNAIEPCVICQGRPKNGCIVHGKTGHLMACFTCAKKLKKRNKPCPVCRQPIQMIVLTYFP
Chain of HDMx (O15151 whole entry, looked up): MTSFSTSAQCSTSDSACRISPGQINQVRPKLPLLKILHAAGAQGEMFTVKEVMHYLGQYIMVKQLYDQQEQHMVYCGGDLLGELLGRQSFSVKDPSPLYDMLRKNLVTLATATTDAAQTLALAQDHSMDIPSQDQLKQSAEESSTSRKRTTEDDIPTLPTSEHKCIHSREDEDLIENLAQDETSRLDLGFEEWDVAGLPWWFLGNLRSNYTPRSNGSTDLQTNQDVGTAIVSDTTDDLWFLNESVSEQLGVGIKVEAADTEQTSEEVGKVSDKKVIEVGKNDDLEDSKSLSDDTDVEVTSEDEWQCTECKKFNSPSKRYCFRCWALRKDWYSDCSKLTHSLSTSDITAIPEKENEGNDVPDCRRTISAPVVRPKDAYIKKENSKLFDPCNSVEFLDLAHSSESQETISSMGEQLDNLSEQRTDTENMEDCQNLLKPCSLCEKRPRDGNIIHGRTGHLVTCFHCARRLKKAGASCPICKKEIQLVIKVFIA
Chain of GST-hDM2 (Q00987 whole entry, looked up): as the sequence (Q00987 whole entry, looked up) above
Protocol for SJSA-1 cells: On the day of the assay, media was exchanged with RPMI 1% FBS media, 90 μl of media per well.
10 mM stock solutions of the peptidomimetic macrocycles were prepared in 100% DMSO.
The negative control (non-lytic) sample was 0.5% DMSO alone and positive control (lytic) samples include 10 uM Melittin and 1% Triton X-100.
Cell plates were incubated for 1 hour at 37° C. After the 1 hour incubation, the morphology of the cells is examined by microscope and then the plates were centrifuged at 1200 rpm for 5 minutes at room temperature. 40 μl of supernatant for each peptidomimetic macrocyle and control sample is transferred to clear assay plates.

For “287 (LTFAEYWAQAAAAIA; not fully specified; Ac, NH2, staple, difluoro-Phe, Cba; N-term Ac; MOD_RES (3)..(3): 3,4-difluoro-Phe; MOD_RES (4)..(4): Alpha-Me R-azide 1,4 triazole (6 carbon) alanine olefin amino acid connected by an all-carbon crosslinker comprising one double bond; misc_feature (4)..(11): C) [compound 287]”, the “caspase 0.3 uM” value in assay [1] (0.3 uM) stood at 1. Further, the “caspase 1 uM” value in assay [1] (1 uM) is reported as 1. Also, the “caspase 3 uM” value in assay [1] (3 uM) was determined as 3. Moreover, the “caspase 10 uM” value in assay [1] (10 uM) amounted to 11. Also, the “caspase 30 uM” value in assay [1] (30 uM) stood at 23. Also, the “6.25 uM % Lysed cells (1 h LDH)” value in the assay on SJSA-1 cells (6.25 uM) is 0%. Besides, the “25 uM % Lysed cells (1 h LDH)” value in the assay with SJSA-1 cells (25 uM) is reported as 11%. For the same compound, in the assay with SJSA-1 cells (50 uM), the “50 uM % Lysed cells (1 h LDH)” value amounted to 56%.
At GST-hDM2, `CC(=O)N[C@@H](CC(C)C)C(=O)N[C@@H](CO)C(=O)N[C@@H](CCC(N)=O)C(=O)N[C@@H](CCC(N)=O)C(=O)N[C@H](C(=O)N[C@@H](Cc1ccccc1)C(=O)N[C@]1(C)CCCCCCC=CCCC[C@@](C)(C(=O)N[C@@H](CCC(N)=O)C(=O)N[C@@H](CC(N)=O)C(N)=O)NC(=O)[C@H](CC(C)C)NC(=O)[C@H](CC(C)C)NC(=O)[C@H](CCCNC(=N)N)NC(=O)[C@H](Cc2c[nH]c3ccccc23)NC(=O)[C@H](CC(C)C)NC(=O)[C@H](CC(N)=O)NC1=O)[C@@H](C)O` [SP-3, Ac-LSQQTF$r8NLWRLL$QN-NH2] (Ac-LSQQTF[R8]NLWRLL[S5]QN-NH2; staple 7-14 (inferred)) registered an IC50 of 13.4 nM.
Take `CC(=O)N[C@@H](Cc1ccccc1)C(=O)N[C@]1(C)CCCCCCC=CCCC[C@@](C)(C(=O)N[C@@H](C)C(N)=O)NC(=O)[C@H](CC(C)C)NC(=O)C2(CC2)NC(=O)[C@H](CCC(=O)O)NC(=O)[C@H](Cc2c[nH]c3cc(Cl)ccc23)NC(=O)[C@H](Cc2ccc(O)cc2)NC(=O)[C@H](C)NC1=O` [SP-128, Ac- F $r8 A Y 6clW E Ac3c L $ A -NH2] (Ac-F[R8]AY[Trp(6-Cl)]E[Ac3c]L[S5]A-NH2; staple 2-9 (inferred)): the IC50 at HDM2 is 114 nM.
Consider `CC(=O)N[C@@H](CC(C)C)C(=O)N[C@H](C(=O)N[C@@H](Cc1ccccc1)C(=O)N[C@]1(C)CCCCCC/C=C/CCC[C@@](C)(C(=O)N[C@@H](CO)C(N)=O)NC(=O)[C@H](CC(C)C)NC(=O)[C@H](CCC(N)=O)NC(=O)[C@H](C)NC(=O)[C@H](Cc2c[nH]c3ccccc23)NC(=O)[C@H](Cc2ccc(O)cc2)NC(=O)[C@H](C)NC1=O)[C@@H](C)O` [SP-190, Ac- L T F $er8 A Y W A Q L $e S -NH2] (Ac-LTF[R8]AYWAQL[S5]S-NH2; staple (E) 4-11 (inferred)), for which the figures for the IC50 on HDMx and at HDM2 were 97 nM and 74.9 nM, respectively.
Regarding `CC(=O)N[C@@H](Cc1c[nH]c2ccccc12)C(=O)N[C@H](C(=O)N[C@@H](Cc1ccccc1)C(=O)N[C@]1(C)CCCCCCC=CCCC[C@@](C)(C(=O)N[C@@H](CO)C(N)=O)NC(=O)[C@H](CC(C)C)NC(=O)[C@H](CCC(N)=O)NC(=O)[C@H](C)NC(=O)[C@H](Cc2c[nH]c3ccccc23)NC(=O)[C@H](Cc2ccc(O)cc2)NC(=O)[C@H](Cc2c[nH]cn2)NC1=O)[C@@H](C)O` [SP-256, Ac- W T F $r8 H Y W A Q L $ S -NH2] (Ac-WTF[R8]HYWAQL[S5]S-NH2; staple 4-11 (inferred)), the half-maximal inhibitory concentration (IC50) at HDMx worked out at 204 nM.
On to `CC(=O)N[C@@H](CC(C)C)C(=O)N[C@H](C(=O)N[C@@H](Cc1ccccc1)C(=O)N[C@]1(C)CCCCCCC=CCCC[C@@](C)(C(=O)N[C@@H](CO)C(N)=O)NC(=O)[C@H](CC(C)C)NC(=O)[C@H](CCC(N)=O)NC(=O)[C@H](C)NC(=O)[C@H](Cc2c[nH]c3ccccc23)NC(=O)[C@H](Cc2ccc(O)cc2)NC(=O)[C@H](C(C)C)NC1=O)[C@@H](C)O` [SP-266, Ac- L T F $r8 V Y W A Q L $ S -NH2] (Ac-LTF[R8]VYWAQL[S5]S-NH2; staple 4-11 (inferred)), for which the IC50 at HDMx worked out at 301 nM.
The compound `CC(=O)N[C@@H](CC(C)C)C(=O)N[C@H](C(=O)N[C@@H](Cc1ccccc1)C(=O)N[C@]1(C)CCCCCCC=CCCC[C@@](C)(C(=O)N[C@@H](CO)C(N)=O)NC(=O)[C@H](CC(C)C)NC(=O)[C@H](CCC(N)=O)NC(=O)[C@H](C)NC(=O)[C@H](Cc2c[nH]c3ccccc23)NC(=O)[C@H](Cc2ccc(O)cc2)NC(=O)[C@H](Cc2ccccc2)NC1=O)[C@@H](C)O` [SP-267, Ac- L T F $r8 F Y W A Q L $ S -NH2] (Ac-LTF[R8]FYWAQL[S5]S-NH2; staple 4-11 (inferred)) showed a half-maximal inhibitory concentration (IC50) at HDM2 of 191 nM. That is a sub-micromolar value.
`CC(=O)N[C@@H](CC(C)C)C(=O)N[C@H](C(=O)N[C@@H](Cc1ccccc1)C(=O)N[C@]1(C)CCCCCCC=CCCC[C@@](C)(C(=O)N[C@@H](CO)C(N)=O)NC(=O)[C@H](CC(C)C)NC(=O)[C@H](C)NC(=O)[C@H](C)NC(=O)[C@H](Cc2c[nH]c3ccccc23)NC(=O)[C@H](Cc2ccc(O)cc2)NC(=O)[C@H](C)NC1=O)[C@@H](C)O` [SP-351, Ac- L T F $r8 A Y W A A L $ S -NH2] (Ac-LTF[R8]AYWAAL[S5]S-NH2; staple 4-11 (inferred)): the IC50 on HDMx stood at 143 nM; on HDM2 it was 47.2 nM.
